Results as given in patent US8772449B2, “Cell-penetrating peptides” (Toray Industries, Inc., priority 2009, dated 2014).
Read-outs that look alike come from different tables or passages of the source. One block for each substance: values may come before it. Ends that are not written are not given here.

Experiments:
[1] = Intranasal administration of interferon β with peptide to rats (plasma interferon β level); conditions: Example 6, interferon β 0.18×10^6 IU/kg alone or with 0.5 mM peptide, FIG. 7
[2] = Intestinal administration of insulin with peptide (ileal loop) to rats; assay type: in vivo; conditions: Example 8, insulin 50 IU/kg with 0.5 mM peptide, male SD rat, FIG. 10
Procedure: A silicone tube was […] cm distant from the ileocecal junction toward the ileum, and a feeding needle was inserted at a position about 10 cm upward therefrom. Further, sutures were passed through an area of 6 cm between these. From the feeding needle, 20 ml of phosphate buffered saline (PBS) at pH 7.4 prewarmed to 37° C. was fed at a flow rate of 5 ml/min. to allow discharging of the contents, and the silicone tube was plugged, followed by administering 1 ml of PBS prewarmed to 37° C. from the feeding needle and keeping it retained for 30 minutes. After the administration, the feeding needle was quickly plugged and the intestinal tract was returned into the abdominal cavity, followed by closing the site of incision with a clip and allowing the rat to keep still. […] The rat during the experiment was fixed on its back on a hot plate kept at 37° C. by a hot-water circulating pump to regulate the body temperature. […] Also for rats to which the same quantity of the insulin solution alone was subcutaneously administered, the blood collection and the measurement were carried out in the same manner.

HeLa cells [3] = experiment: Evaluation of promotion of transfer of polystyrene beads into cells; assay type: cell-based; conditions: Example 3, beads alone or with peptide 1 μM, 3 hours, FIG. 3
Procedure: In DMEM medium supplemented with 10% FBS, 0.2 ml of HeLa cells were plated on a 96-well glass bottom plate, and the cells were cultured at 37° C. for 48 to 72 hours to allow the cells to adhere to the bottom surface. After 3 times of washing with 200 μl of PBS, 50 μl of DMEM medium containing each of the peptides of SEQ ID NOs:1 to 6 labeled with fluorescein at the amino terminus (contract synthesis by Sigma-Genosys) at a final concentration of 1 μM, fluorescent polystyrene beads (Fluorospheres Carboxylated Microbeads, 0.1 μm; manufactured by Molecular probes, Inc.) at a final concentration of 1 μl/well and 10% FBS was added to each well. The plate was incubated in a CO2 incubator for 3 hours and then washed 3 times with DMEM medium supplemented with 10% FBS, followed by addition of 50 μl of a lysis solution (10 mM Tris-HCl, 5 mM EDTA, 100 mM NaCl, 1% SDS, 100 μg/ml proteinase K) and 1 hour of incubation at room temperature, to decompose the cells. The whole lysis solution was recovered, and the amount of fluorescent polystyrene beads incorporated into the cells was measured using a fluorescence intensity measuring apparatus at an excitation wavelength of 580 nm and a fluorescence wavelength of 605 nm.

HeLa cells [4] = experiment: Evaluation of promotion of insulin transfer into cells (rhodamine-labeled insulin incorporated, fluorescence intensity of lysate); assay type: cell-based; conditions: for incorporation of rhodamine-labeled insulin into the cells (in words): Example 2, rhodamine-labeled human insulin 100 μg/ml alone or with peptide, 3 hours, FIG. 2
Procedure: In DMEM medium supplemented with 10% FBS, 0.2 ml of HeLa cells were plated on a 96-well glass bottom plate, and the cells were cultured at 37° C. for 48 to 72 hours to allow the cells to adhere to the bottom surface.
(§1) The rhodamine-labeled insulin was prepared by the following method. […] To the resulting solution, 4 mg of NHS-rhodamine (Pierce) dissolved in 0.5 ml of DMSO was added, and the reaction was allowed to proceed at room temperature overnight.
(§2) Further, the amount of fluorescein incorporated into the cells was measured by the same method as in Example 1.

HeLa cells [5] = experiment: Localization of rhodamine-labeled insulin in HeLa cells by confocal laser microscope; assay type: cell-based; conditions: Example 2, peptide added together with rhodamine-labeled insulin, FIG. 12
Procedure: as §1

HeLa cells [6] = experiment: Evaluation of peptide permeability into cells (fluorescein-labeled peptide incorporated into HeLa cells); assay type: cell-based
Procedure: In DMEM medium supplemented with 10% FBS, 0.2 ml of HeLa cells were plated on a 96-well glass bottom plate, and the cells were cultured at 37° C. for 48 to 72 hours to allow the cells to adhere to the bottom surface. After 3 times of washing with 200 μl of PBS, 50 μl of DMEM medium containing each of the peptides of SEQ ID NOs:1 to 6 labeled with fluorescein at the amino terminus (contract synthesis by Sigma-Genosys) at a final concentration of 5 μM and FBS at a final concentration of 10% was added to each well. The plate was incubated in a CO2 incubator for 3 hours and then washed 3 times with DMEM medium supplemented with 10% FBS, followed by addition of 50 μl of a lysis solution (10 mM Tris-HCl, 5 mM EDTA, 100 mM NaCl, 1% SDS, 100 μg/ml proteinase K) and 1 hour of incubation at room temperature, to decompose the cells and the peptides incorporated into the cells. The whole lysis solution was recovered, and the amount of fluorescein incorporated into the cells was measured using a fluorescence intensity measuring apparatus (HORIBA FLUOROMAX-3) at an excitation wavelength of 494 nm and a fluorescence wavelength of 512 nm.
as §2

nasal cavity = experiment: Evaluation of damage to nasal cavity (LDH leakage into washing solution); conditions: Example 9; mixed solution of peptide and insulin, intranasal, washing 15 minutes later, FIG. 11
[7] = Intranasal administration of insulin with peptide to rats (blood glucose, plasma insulin, bioavailability, AUC); conditions: Example 4, insulin 1 IU/kg alone or mixed with 0.5 mM peptide (L-body), male SD rat, FIG. 5
[8] = Intranasal administration of exendin-4 with peptide to rats (plasma exendin-4 level); conditions: Example 7, exendin-4 0.25 mg/kg alone or with 0.5 mM peptide, FIG. 8
[9] = rat, in vivo, 0.25 mg/kg

blood insulin level after intestinal administration, compared to insulin alone [2]: evident increase
Substance: KWFRIQMQIKKWRNRR [SEQ ID NO:4]
plasma interferon β level after intranasal administration [1]: transfer of interferon β into the blood from immediately after the administration

Substance: SEQ ID NO:6: Random peptide, cell membrane non-permeable; sequence not printed (EYDLSTAGGAAAC; Synthetic peptide random peptide)
incorporation of fluorescent polystyrene beads into the cells (in words) (HeLa cells [3]): almost no incorporation
incorporation of rhodamine-labeled insulin into the cells (in words) (HeLa cells [4]): almost no incorporation
rhodamine-labeled insulin incorporated into the cells, of the amount added (HeLa cells [4]; Example 12, fluorescein-labeled peptides added together with rhodamine-labeled insulin, incubation 5 hours, FIG. 16): about 0.2%
permeation of rhodamine-labeled insulin into the cells, confocal laser microscope (HeLa cells [5]): did not allow permeation
incorporation of fluorescein-labeled peptide into the cells (in words) (HeLa cells [6]; Example 1, fluorescein-labeled peptide 5 μM, 3 hours, FIG. 1): hardly incorporated into the cells
fluorescein incorporated into the cells, of the fluorescein added (HeLa cells [6]; Example 12, fluorescein-labeled peptides, incubation 5 hours, FIG. 15): about 0.2%

Substance: RWFKIQMQIRRWKNKK [SEQ ID NO:1, R W F K I Q M Q I R R W K N K K]
release of LDH from the nasal cavity, compared to 5% (w/v) sodium taurodeoxycholate (nasal cavity): significantly lower
plasma interferon β level after intranasal administration [1]: transfer of interferon β into the blood from immediately after the administration
blood insulin level after intestinal administration, compared to insulin alone [2]: evident increase
blood insulin level after intranasal administration [7]: transfer of insulin into the blood was observed from immediately after the administration
plasma exendin-4 level after intranasal administration [8]: transfer of exendin-4 into the blood from immediately after the administration

Substance: rhodamine-labeled insulin: human insulin reacted with NHS-rhodamine (Pierce); fluorescent probe, added alone
incorporation of rhodamine-labeled insulin into the cells (in words) (HeLa cells [4]): almost no incorporation

Substance: exendin-4
plasma exendin-4 level after intranasal administration [9]: almost no increase
